Test results as given in PMC12489660, “Multitargeted Caffeic Acid Derivatives Inhibit Cardiac RyR2- and NaV1.5- Channels but Stimulate SERCA2a Pump Activity” (ACS Omega, 2025).
“And” between values parts separate entries of the source, which are not always exact repeats. Equal values may be shown once.

What was measured:
wild type mouse RyR2 = biological target: T1, wild type mouse RyR2 (Mus musculus, UniProt E9Q401); experiment: Time-lapse [Ca2+]ER assay in HEK-293 RyR2 R-CEPIA1er cells (RyR2 activity assay); format: cell-based; conditions: 25 μM; for effect on RyR2 activity / [Ca2+]ER (in words): vs control 0.1 v/v% DMSO; for RyR2 activity: percentage from the control sample (100%), mean ± SEM;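 as to all read-outs here: ER Ca2+ read as R-CEPIA1er fluorescence ratio F/F0 (F0 mean of initial 90 s, F mean of final 100 s), compared with vehicle-treated control wells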
T1 construct: expressed in transfected cells; host or cells: HEK-293 cells stably expressing WT RyR2 and R-CEPIA1er (gift of Dr. Takashi Murayama), induced with doxycycline

SERCA2 = SERCA2 (Mus musculus, UniProt O55143); experiment: Caffeine induced calcium release assay on live HL-1 cardiomyocytes; format: cell-based; conditions: for activation of SERCA2 in HL-1: 10 μM, percentage from the control sample (100%), mean ± SEM; for EC50: 2 h preincubation, 10 mM caffeine, read-out: activation of SERCA2 in HL-1, EC50 (converted);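 as to all read-outs here: Read-out: caffeine-evoked peak minus basal fluorescence (ΔF Caff) of cytoplasmic FLIPR Calcium 6 dye, recorded for 1 min, compared with Tyrode's solution plus 0.1 v/v% DMSO as control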
SERCA2a = biological target: T2, SERCA2a (Mus musculus, UniProt O55143); experiment: NADH-coupled ATPase assay on microsomal membrane vesicles from mouse heart ventricles (mouse SER); format: biochemical; conditions: for effect on SERCA2a ATPase activity (in words) / ATPase activity of SERCA2a in mouse SER: 10 μM; for effect on SERCA2a ATPase activity (in words): mouse SER; for ATPase activity of SERCA2a in mouse SER: percentage from the control sample (100%), mean ± SEM; for EC50: kinetic rate of NADH–NAD+ conversion, Figure S10: 200 µM free Ca2+
T2 construct: from tissue; host or cells: adult mouse heart ventricles, microsomal membrane vesicles
Protocol: To this end, we tracked the rate of nicotinamide adenine dinucleotide (NADH) oxidation linked to ATP hydrolysis by observing changes in NADH fluorescence over time. This was done after addition of ATP to solutions containing microsomal membranes enriched with SER vesicles isolated from adult mouse heart ventricles (mouse SER). The NADH fluorescence decrease was recorded on a FlexStation 3 Multimode Microplate Reader. […] We detected the highest increase in ATPase activity (up to 118%), when the vesicles were treated with borate complex 11–13 (Table ). We tested compounds 11–13 in the NADH assay buffer to see whether these compounds could contribute to the rate of NADH fluorescence reduction (Figures S7–S9). No significant deviations were found in the rate of NADH consumption compared to the control sample (0.1 v/v% DMSO).
Isolation of Microsomal Membrane Vesicles from mouse hearts was done according to procedure described earlier. All animal procedures were performed in accordance with national and institutional regulations.
Mouse ventricular microsomes (4–5 μg of total protein) were diluted in 100 μL of the assay buffer used for measurement of SERCA activity (described below) and incubated at room temperature for 10 min prior to the experiments. The measurements of SERCA2 activity were made at 25 °C by using a NADH -coupled ATPase assay as described in Radnai et al. with slight modifications. Briefly, the assay buffer contained 60 mM MOPS, 120 mM KCl, 6 mM MgCl2, 1 mM EGTA, 5 mM NaN3, 0.5 mM phosphoenolpyruvate and 0.67 mM CaCl2, pH 7.0. Before the reaction was started by the injection of 10 μL ATP (resulting in 2 mM final concentration in the well), 5 units/mL of both lactate dehydrogenase and pyruvate kinase, 0.5 mM NADH, and 1 μM Ca^2+ ionophore A-23187 (Sigma, C-7522) were added to the diluted sample with or without the tested compound (volume −150 μL). […] The NADH fluorescence decrease was recorded each 2 s for 5 min course on a FlexStation 3 Multi-Mode Microplate Reader in 96-well glass bottom plates (MatTek Corporation; Cat. No. PBK96G-1.5-5-F). Fluorescence was evoked by 380 nm excitation wavelength and collected in a bottom-read mode at 425 nm, cutoff–470 nm, 4 flashes per read. ATP was injected at 60 s, speed–125 μL/s, pipet height–140 μL. The data were analyzed with computer software GraphPad Prism version 8.3.1 (GraphPad Software, Inc.). The difference in signal decrease with and without microsomes was taken as an indicator for the additional ATPase activity performed by SERCA2. The obtained values for maximal SERCA2 activity were normalized for total protein concentration. Maximal SERCA2 activity values are reported as percentages of control (0.1% DMSO) values. Microsomal samples that were kept on ice until usage and set to 100%.

human NaV1.5 = human NaV1.5 (Homo sapiens, UniProt Q14524); experiment: FLIPR membrane potential assay on CHO NaV1.5 Duo cells (veratridine-induced); format: cell-based; conditions: for NaV1.5 activity in CHO cells: 10 μM, percentage from the control sample (100%), mean ± SEM; for effect on NaV1.5 activity (in words): concentration range 0.1 to 100 μM
[1] = PermeaPad membrane permeability; format: in vitro ADME; conditions: not told, room temperature, class low/medium in parentheses, read-out: P e (permeability rate)
Description: We determined permeability rates (P e ), which are a measure of how fast a compound can cross a membrane, using cell-free transport models (PermeaPad, innoME GmbH) The CA derivatives have medium to low permeability rates in the range 1.0–24.0 nm/s (Table ). Similar to S36, despite poor permeability, compounds 2–4, 8, and 9 acted on live RyR2-HEK-293 R-CEPIA1er cells inhibiting RyR2. […] Since PermeaPad is an artificial model that primarily reflects passive diffusion, it is likely that additional mechanisms contribute to the crossing of cell membranes by these compounds.
Membrane permeability was assessed using PermeaPad Plate according to the manufacturing procedure (innoME GmbH, Espelkamp, Germany). Briefly, 200 μL (V A) water was added into acceptor plate. 200 μL (V D) of 100–500 μM test compound in water was added directly to the well membranes of the donor plate. The donor plate contains a biomimetic membrane for simulating passive mass transfer through different barriers in the body. Then the donor plate was placed into the acceptor plate wells and incubated at room temperature for 24 h in dark. To determine peak absorbance of test compounds, absorbance spectra of acceptor solutions and initial solutions for each test compound were read out. The Permeability Rate (P e) was calculated using the formula:
P e = C × −ln (1 – ODA/ODB) cm/s, where OD A is the absorbance of acceptor solution, OD B is the absorbance of the standard solution; if the compound is able to permeabilize the membrane and fully reach equilibrium, 250 μM will be the final concentration of solution in the donor and acceptor wells. The coefficient C was calculated using the formula: C=VD×VA/(VD+VA)×Area×time where V A–acceptor volume (cm^3), V D–donor volume (cm^3), membrane area 0.24 cm^2, time is 86,400 s.

T2 sequence (O55143 1-998 isoform O55143-2): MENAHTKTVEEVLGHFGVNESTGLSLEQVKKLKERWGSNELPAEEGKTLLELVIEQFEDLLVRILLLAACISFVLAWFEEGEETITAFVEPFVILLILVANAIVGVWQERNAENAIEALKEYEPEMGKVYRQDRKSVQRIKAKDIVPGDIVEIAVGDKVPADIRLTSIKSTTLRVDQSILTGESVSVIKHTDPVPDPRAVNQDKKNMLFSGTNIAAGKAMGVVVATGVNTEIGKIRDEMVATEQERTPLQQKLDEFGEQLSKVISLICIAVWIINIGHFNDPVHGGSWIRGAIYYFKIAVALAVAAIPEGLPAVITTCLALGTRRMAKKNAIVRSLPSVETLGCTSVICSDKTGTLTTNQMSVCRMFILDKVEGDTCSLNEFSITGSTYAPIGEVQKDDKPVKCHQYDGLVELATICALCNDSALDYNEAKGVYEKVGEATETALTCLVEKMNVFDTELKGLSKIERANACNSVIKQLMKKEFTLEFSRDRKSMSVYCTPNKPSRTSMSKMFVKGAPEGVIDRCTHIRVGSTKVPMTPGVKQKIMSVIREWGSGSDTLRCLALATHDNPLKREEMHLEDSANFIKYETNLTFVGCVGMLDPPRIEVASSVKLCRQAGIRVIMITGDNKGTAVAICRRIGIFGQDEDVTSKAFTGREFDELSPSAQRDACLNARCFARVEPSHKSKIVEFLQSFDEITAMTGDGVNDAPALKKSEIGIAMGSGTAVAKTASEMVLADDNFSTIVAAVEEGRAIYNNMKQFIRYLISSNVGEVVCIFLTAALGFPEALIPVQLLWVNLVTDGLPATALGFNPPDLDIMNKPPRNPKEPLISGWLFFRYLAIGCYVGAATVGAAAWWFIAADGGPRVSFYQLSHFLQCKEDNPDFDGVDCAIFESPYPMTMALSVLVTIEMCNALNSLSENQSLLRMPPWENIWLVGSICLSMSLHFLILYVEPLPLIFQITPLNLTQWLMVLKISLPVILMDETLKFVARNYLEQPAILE
SERCA2, sequence (O55143 1-994 limits assumed): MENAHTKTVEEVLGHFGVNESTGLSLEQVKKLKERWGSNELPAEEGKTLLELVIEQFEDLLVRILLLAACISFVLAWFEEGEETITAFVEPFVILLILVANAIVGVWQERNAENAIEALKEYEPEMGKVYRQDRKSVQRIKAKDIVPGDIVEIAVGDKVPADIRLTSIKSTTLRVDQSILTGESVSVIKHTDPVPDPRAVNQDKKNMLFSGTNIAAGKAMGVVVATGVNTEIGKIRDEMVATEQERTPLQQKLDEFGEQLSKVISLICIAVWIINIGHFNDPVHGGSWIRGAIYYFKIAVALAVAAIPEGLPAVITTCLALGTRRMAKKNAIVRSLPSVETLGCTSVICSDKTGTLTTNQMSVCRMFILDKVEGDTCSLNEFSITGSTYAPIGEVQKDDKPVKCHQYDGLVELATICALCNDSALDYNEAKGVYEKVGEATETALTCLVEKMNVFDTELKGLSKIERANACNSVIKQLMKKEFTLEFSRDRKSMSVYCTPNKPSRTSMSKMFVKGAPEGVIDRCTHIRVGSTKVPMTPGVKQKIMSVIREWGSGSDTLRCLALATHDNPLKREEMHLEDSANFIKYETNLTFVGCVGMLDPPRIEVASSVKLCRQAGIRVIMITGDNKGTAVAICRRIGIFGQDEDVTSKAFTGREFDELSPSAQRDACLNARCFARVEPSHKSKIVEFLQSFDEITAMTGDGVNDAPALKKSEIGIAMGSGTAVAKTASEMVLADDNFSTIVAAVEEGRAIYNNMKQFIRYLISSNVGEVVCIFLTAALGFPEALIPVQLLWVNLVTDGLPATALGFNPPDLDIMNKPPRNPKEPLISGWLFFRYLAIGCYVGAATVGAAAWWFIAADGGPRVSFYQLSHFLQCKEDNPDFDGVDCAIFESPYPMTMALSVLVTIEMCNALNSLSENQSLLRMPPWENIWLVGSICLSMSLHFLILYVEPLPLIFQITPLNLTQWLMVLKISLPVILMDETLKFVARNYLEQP
human NaV1.5, sequence (Q14524 1-460 limits assumed): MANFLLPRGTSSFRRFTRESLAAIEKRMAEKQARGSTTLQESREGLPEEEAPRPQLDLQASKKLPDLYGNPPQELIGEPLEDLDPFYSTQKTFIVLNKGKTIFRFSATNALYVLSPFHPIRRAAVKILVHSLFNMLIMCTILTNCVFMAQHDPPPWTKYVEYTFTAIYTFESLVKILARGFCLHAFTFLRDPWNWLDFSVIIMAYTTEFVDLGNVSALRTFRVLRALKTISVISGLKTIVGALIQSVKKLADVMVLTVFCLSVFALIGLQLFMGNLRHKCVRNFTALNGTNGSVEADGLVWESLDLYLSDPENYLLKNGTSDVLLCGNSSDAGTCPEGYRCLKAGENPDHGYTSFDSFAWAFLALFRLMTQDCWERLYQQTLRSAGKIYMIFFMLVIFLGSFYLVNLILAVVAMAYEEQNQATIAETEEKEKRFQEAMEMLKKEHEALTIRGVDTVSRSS
human NaV1.5, sequence (Q14524 661-1004 limits assumed): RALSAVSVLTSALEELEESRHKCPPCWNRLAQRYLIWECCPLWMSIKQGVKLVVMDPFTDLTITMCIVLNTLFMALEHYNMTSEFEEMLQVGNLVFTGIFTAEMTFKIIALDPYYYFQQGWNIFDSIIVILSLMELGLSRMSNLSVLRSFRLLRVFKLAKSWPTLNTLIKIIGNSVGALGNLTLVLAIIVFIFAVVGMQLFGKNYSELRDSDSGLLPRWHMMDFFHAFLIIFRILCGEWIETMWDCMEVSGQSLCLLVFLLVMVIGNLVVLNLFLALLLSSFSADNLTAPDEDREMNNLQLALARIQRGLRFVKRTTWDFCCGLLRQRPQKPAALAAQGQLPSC
human NaV1.5, sequence (Q14524 1142-2016 limits assumed): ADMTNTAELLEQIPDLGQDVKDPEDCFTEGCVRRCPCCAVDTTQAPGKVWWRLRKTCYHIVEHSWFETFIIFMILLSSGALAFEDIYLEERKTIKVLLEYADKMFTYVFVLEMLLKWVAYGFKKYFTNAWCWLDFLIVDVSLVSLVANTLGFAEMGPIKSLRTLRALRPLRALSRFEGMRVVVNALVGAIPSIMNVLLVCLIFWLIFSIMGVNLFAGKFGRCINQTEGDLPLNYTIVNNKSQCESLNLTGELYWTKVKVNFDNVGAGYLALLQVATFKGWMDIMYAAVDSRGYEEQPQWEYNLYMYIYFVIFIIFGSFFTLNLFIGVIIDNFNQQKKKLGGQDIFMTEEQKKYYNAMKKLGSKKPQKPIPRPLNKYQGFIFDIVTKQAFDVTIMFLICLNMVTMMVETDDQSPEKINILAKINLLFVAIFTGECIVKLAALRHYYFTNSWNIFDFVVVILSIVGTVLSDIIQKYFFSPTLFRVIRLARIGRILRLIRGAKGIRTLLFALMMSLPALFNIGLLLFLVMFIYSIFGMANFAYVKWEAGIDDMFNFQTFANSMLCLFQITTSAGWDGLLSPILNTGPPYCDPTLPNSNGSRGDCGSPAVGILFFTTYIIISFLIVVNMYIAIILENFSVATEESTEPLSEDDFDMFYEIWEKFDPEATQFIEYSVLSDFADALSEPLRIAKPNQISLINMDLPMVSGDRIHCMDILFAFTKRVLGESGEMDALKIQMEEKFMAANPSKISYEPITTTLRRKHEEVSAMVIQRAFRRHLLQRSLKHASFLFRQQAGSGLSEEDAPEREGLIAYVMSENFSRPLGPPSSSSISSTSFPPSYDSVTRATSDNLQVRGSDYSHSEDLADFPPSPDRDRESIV

Row | Compound | effect on RyR2 activity / [Ca2+]ER (in words) (wild type mouse RyR2) | RyR2 activity (wild type mouse RyR2) | activation of SERCA2 in HL-1 (SERCA2) | EC50 (SERCA2; HL-1 cells) | effect on SERCA2a ATPase activity (in words) (SERCA2a) | ATPase activity of SERCA2a in mouse SER (SERCA2a) | NaV1.5 activity in CHO cells (human NaV1.5) | effect on NaV1.5 (in words) (human NaV1.5; 100 μM) | Papp at 24 h [1] | EC50 (SERCA2a) | concentration of maximal inhibition (human NaV1.5; positive control) | effect on NaV1.5 (in words) (human NaV1.5; 1 μM) | effect on NaV1.5 (in words) (human NaV1.5; 10–100 μM) | effect on NaV1.5 activity (in words) (human NaV1.5) | effect in caffeine-induced Ca2+ release assay relative to CDN1163 (SERCA2; HL-1 cardiomyocytes) | increase in the signaling response to caffeine stimulation compared to the control sample (SERCA2; HL-1 cells, maximal effect of the dose-response)
1 | COc1ccc2c(c1)CN(CCCCNC(=O)C(=O)NCCCCCCNC(=O)/C=C/c1ccc(O)c(O)c1)CCS2 [Compound 4] | significantly increased [Ca^2+]ER | 102.2 ± 0.6% | 140.3 ± 6.4% | 1.4 µM | significant activation of SERCA2a ATPase | 110.8 ± 4.5% | 108.0 ± 1.6% | small but significant activating effect | 2.7 ×10⁻⁶ cm/s | – | – | – | – | – | – | –
2 | COc1ccc2c(c1)CN(CCCCCC[NH+]([BH2-]C#N)C/C=C/c1ccc(O)c(O)c1)CCS2 (stereo not shown) [Compound 12] | significantly increased [Ca^2+]ER | 103.9 ± 0.8% | 277.8 ± 12.7% | 1.1 µM | – | 118.2 ± 2.5% | 86.2 ± 2.6% | – | 0.4 ×10⁻⁶ cm/s | 0.0023 µM | – | – | – | – | – | –
3 | COc1ccc2c(c1)CN(C/C=C/C(=O)NNC(=O)/C=C/c1ccc(O)c(O)c1)CCS2 [Compound 3, (E)-N′-((E)-3-(3,4-Dihydroxyphenyl)acryloyl)-4-(7-methoxy-2,3-dihydrobenzo[1,4-f]thiazepin-4(5H)-yl)but-2-enehydrazide] | significantly increased [Ca^2+]ER | 101.7 ± 0.3% | 135.4 ± 3.8% | > 3 µM | did not evoke a significant increase in ATPase activity | 100.6 ± 2.5% | 94.8 ± 2.1% | – | 3.4 ×10⁻⁶ cm/s | – | – | – | – | – | – | –
4 | CCCCNc1ccc(C(=O)OCCN(C)C)cc1 [tetracaine, reference compound] | – | – | – | – | – | – | – | – | – | – | 100 µM | – | – | – | – | –
5 | COc1ccc2c(c1)CN(CCCCCCCCNC(=O)/C=C/c1ccc(O)c(O)c1)CCS2 [Compound 7] | – | 100.1 ± 1.7% | 175.3 ± 7.2% | 1.9 µM | – | 109.8 ± 2.9% | 87.4 ± 1.1% | – | 0.9 ×10⁻⁶ cm/s | – | – | activating effect | inhibitory effect | bell-shaped behavior | – | –
6 | O=C(O)C=Cc1ccc(O)c(O)c1 [CA, 3-(3,4-dihydroxyphenyl)-2-propenoic acid, reference compound] | did not affect the RyR2 activity | 100.9 ± 0.8% | – | – | accelerated consumption of NADH | 108.5 ± 2.5% | 91.8 ± 2.4% | – | – | – | – | – | – | no effect on NaV1.5 activity | – | –
7 | COc1ccc2c(c1)CN(CCCCCCNC(=O)/C=C/c1ccc(O)c(O)c1)CCO2 [Compound 8] | RyR2 activators | 95.0 ± 1.2% | 158.1 ± 2.4% | 7.6 µM | – | 110.5 ± 3.5% | 96.6 ± 3.6% | – | 1.1 ×10⁻⁶ cm/s | – | – | – | – | – | – | –
8 | COc1ccc2c(c1)CN(CCCC[NH+]([BH2-]C#N)C/C=C/c1ccc(O)c(O)c1)CCS2 (stereo not shown) [Compound 11] | did not affect the RyR2 activity | 100.8 ± 0.7% | 267.3 ± 11.7% | 13.6 µM | – | 115.7 ± 4.0% | 83.8 ± 1.7% | – | 2.6 ×10⁻⁶ cm/s | 0.03 µM and 0.0296 µM | – | – | – | – | 2.5 fold | up to 450%
9 | COc1ccc2c(c1)CN(CCCCCCNC(=O)/C=C/c1ccc(O)c(O)c1)CCS2 [Compound 6] | did not affect the RyR2 activity | 99.4 ± 0.4% | 235.4 ± 8.5% | 3.1 µM | – | 112.3 ± 3.5% | 88.8 ± 0.9% | – | 0.9 ×10⁻⁶ cm/s | – | – | – | – | – | – | –
10 | Cc1ccc2cccc(NC(=O)c3ccc(OC(C)C)cc3)c2n1 [CDN1163, reference compound] | – | – | – | 21 µM and 21.2 µM | – | – | – | comparable to the maximal effect of tetracaine | – | – | – | – | – | blocked NaV1.5 | – | –
11 | COc1ccc2c(c1)CN(CCCCCCCCNC/C=C/c1ccc(O)c(O)c1)CCO2 [Compound 10] | significantly increased [Ca^2+]ER | 102.1 ± 0.4% | 126.4 ± 13.0% | 47.6 µM | – | 112.3 ± 4.6% | 103.0 ± 1.4% | – | 0.2 ×10⁻⁶ cm/s | – | – | – | – | no effect on NaV1.5 | – | –
12 | O=C1CN(/N=C/c2ccc(-c3ccc([N+](=O)[O-])cc3)o2)C(O)=N1 [dantrolene, reference compound] | increase in R-CEPIA1er fluorescence | – | – | – | – | – | – | – | – | – | – | – | – | – | – | –
13 | COc1ccc(SCCCNC(=O)/C=C/c2ccc(O)c(O)c2)cc1 [Compound 2, (E)-3-(3,4-Dihydroxyphenyl)-N-(3-((4-methoxyphenyl)thio)propyl)acrylamide] | RyR2 activators | 96.5 ± 0.4% | 161.5 ± 9.5% | 11 µM | significant activation of SERCA2a ATPase | 109.2 ± 3.6% | 89.7 ± 1.1% | – | < 1 ×10⁻⁶ cm/s | – | – | – | – | – | – | –
